Data from patent US20140123342A1, “Regulation of Stomatal Apertures by Apyrases and Extracellular Nucleotides” (BOARD OF REGENTS, THE UNIVERSITY OF TEXAS SYSTEM, priority 2011, published 2014).

Assays:
Assay type in all cases: cell-based, Arabidopsis thaliana
H2O2 in guard cells = assay: Detection and quantification of H2O2 (H2DCFDA fluorescence); settings: 10 μM, leaf epidermal tissue, after 30 min
Description: (§1) Detection and Quantification of H2O2 and NO: Col-0 plants were grown on soil for 2 to 4 weeks under continuous light at 21° C. Plants were placed in the dark for 24 h to ensure closure and then transferred to the light for 1 h. After 1 h in the light, mature basal leaves were excised and blended in a Waring blender on the low setting for approximately 10 s to isolate epidermal tissues, and the tissues were placed in 3 mL of 30 mM KCl, 10 mM Mes-KOH, pH 6.16 buffer in light for 2 h (Pei et al., 2000; Murata et al., 2001). DAF-2 DA and H2DCFDA were dissolved in DMSO to produce 5 mM and 10 mM stock solutions, respectively, and these were stored at −20° C. in 30 μL, aliquots. Fifty μM H2DCFDA or 15 μM DAF-2 DA was added to the medium in the dark, and after 30 min, 10 μM ABA, 200 μM ATPγS, or buffer (ATP control) was also added to the medium in the dark for 30 min. Peels were then rinsed by decanting the treatment solution and adding 3 mL fresh leaf buffer to the peels. Peels were rinsed twice as described. A peel from each of the three treatments (ABA, ATPγS and buffer) were placed on the same microscope slide and observed sequentially. A second study was staggered 30 to 45 min after the first by loading the H2DCFDA or DAF-2 DA dye to new peels 30 to 45 min after the first round of dye was added. Confocal laser scanning microscopy (CLSM) was performed with a Leica SP2 AOBS confocal microscope (Leica Microsystems, Bannockburn, Ill., USA). Laser power was set at 15%, with an excitation of 488 nm and an emission of 525 nm. A series of 0.5 μm optical sections with average intensity projection along the z axis were collected and made into one 2D image with greater focal depth. All images were obtained with the same software scanning settings including detector gain and laser intensity settings.

[1] = system: stomata (guard cells) in epidermal peels; assay: Stomatal aperture closure studies, epidermal peels in the light; settings: 10 μM, epidermal peels, light, 1 h
Description: (§2) Stomatal Aperture Studies: Arabidopsis thaliana ecotypes Columbia (Col-0) and Wassilewskija (WS) were used as wild types in this study. Col-0, nia1nia2, atrbohD/F, R2-4A and WS plants were all grown on autoclaved Metro-Mix 200 soil at 22° C. under continuous light. The mutant seeds nia1nia2 nia2-5; CS 2356; Col-0 background) were obtained from Dr. N. M. Crawford (University of California at San Diego) and the mutant seeds atrbohD/F (Col-0 background) were obtained from Dr. J. M. Kwak (University of Maryland). The RNAi mutant apyrase line (R2-4A) is in WS background, so WS ecotype was used as the control wild type for these studies. Leaves from 2 to 3 week old Col-0 plants, or R2-4A and WS plants treated with 4 μM estradiol for 1 week after development of mature basal leaves were used for peel and whole leaf studies. Plants were placed in the dark and watered 24 h before an study. For opening studies, plants were used immediately after 24 h dark treatment and all treatments were done in the dark except for the light treated leaves or peels, thus the control stomata are dark controls. For closure studies, plants were placed in the light 3 h before an study to induce stomatal opening and all treatments were done in the light, thus the control stomata are light controls. For peel studies, epidermal peels were made from the underside of the leaf and treatments were applied to the peels for 1 h. For whole leaf studies, leaves were removed and treatments were applied for 2 h. For each treatment, about 3 or 4 peels collected from different leaves or 3 or 4 different leaves of at least two different plants were floated with the abaxial side up in petri dishes on 3 mL of Arabidopsis leaf buffer consisting of 10 mM KCl, 25 mM MES pH 6.15 (Melotto et al., 2006) and the chemical being tested. For whole leaf studies peels were collected after the treatment.
(§3) For studies testing the effects of ATPγS, ADPγS, AMPS, RB2, and PPADS (Sigma, St. Louis, Mo., USA) 20 mM stocks were made by dissolving the compounds in de-ionized water. For studies testing the effects of apyrase inhibitors, 7.5 mg/mL of NGXT191 and of inhibitor #13 (Windsor et al., 2002) was dissolved in dimethyl sulfoxide (DMSO) and then applied at a dilution of […] for a final concentration of 0.1% DMSO. ABA (Sigma, St. Louis, Mo., USA) was dissolved in ethanol in 10 mM stocks and then applied at a dilution of 1:1000. The stocks were stored at −20° C. while not in use. The production of the anti-AtAPY1 antibodies used is described by Steinebrunner et al. (2003). The crude immune and pre-immune sera were purified using protein A-Sepharose following the protocol described by Martin (1982) with the slight modification that the buffers used were azide-free. The protein-A purified sera were both used at a 1:1000 dilution in leaf stomatal aperture studies. The concentration of the immune and pre-immune sera, determined by Bradford assay (Bio-Rad), was 10.2 μg/mL and 7.7 μg/mL, respectively.
(§4) After treatment, photos of stomata were taken using a light microscope at 20×. Stomatal aperture width was measured using the image processing software ImageJ. Typically, photos were taken of 70 to 90 stomata per treatment of which only 50 stomata were measured for each treatment. For each treatment the ratio of closed stomata (width of 0) to open stomata was determined for all stomata imaged and this ratio was maintained in the 50 stomata that were measured for each treatment. Data shown uses apertures determined as width/length, however data in all studies also obtained as width only and generally width/length and width only data are in agreement with each other. Statistical significance of the measurements for the treatments was determined using the Student's t test in Microsoft Excel.

NO in guard cells = assay: Detection and quantification of NO (DAF-2 DA fluorescence); settings: 10 μM, leaf epidermal tissue, after 45 min
Description: as §1

[2] = system: stomata of nia1nia2 mutant leaves; assay: Stomatal closing studies with whole leaves of nia1nia2 mutant; settings: 10 μM
Description: (§5) Stomatal Aperture Studies: Arabidopsis thaliana ecotypes Columbia (Col-0) and Wassilewskija (WS) were used as wild types in this study. Col-0, nia1nia2, atrbohD/F, R2-4A and WS plants were all grown on autoclaved Metro-Mix 200 soil at 22° C. under continuous light. The mutant seeds nia1nia2 nia2-5; CS 2356; Col-0 background) were obtained from Dr. N. M. Crawford (University of California at San Diego) and the mutant seeds atrbohD/F (Col-0 background) were obtained from Dr. J. M. Kwak (University of Maryland). The RNAi mutant apyrase line (R2-4A) is in WS background, so WS ecotype was used as the control wild type for these studies. […]
as §4, with “Statistical significance of the measurements for the treatments was determined using the Student's t test in Microsoft Excel.” left out

[3] = system: stomata (guard cells) in whole leaves; assay: Stomatal aperture closure studies, whole leaves in the light; settings: 10 μM, 2 h
Description: as §2, §3, §4

[4] = system: stomata of atrbohD/F mutant leaves; assay: Stomatal closing studies with whole leaves of atrbohD/F mutant; settings: 10 μM
Description: as §5
as §4, with “Statistical significance of the measurements for the treatments was determined using the Student's t test in Microsoft Excel.” left out

SMILES: CC1=CC(=O)CC(C)(C)[C@@]1(O)/C=C/C(C)=C\C(=O)O [ABA, abscisic acid]
- increase in H2DCFDA fluorescence in guard cells (H2O2 in guard cells): 3 fold
- effect on stomatal aperture [1]: induced stomatal closure
- increase in DAF-2 DA fluorescence in guard cells (NO in guard cells): 2.5 fold
- effect on stomatal aperture [2]: no effect on stomatal aperture
- effect on stomatal aperture ([3]; both estradiol-treated WS wild-type and R2-4A plants): caused closure
- effect on stomatal aperture ([3]; whole leaves, light): induced stomatal closure
- effect on stomatal aperture [4]: no effect on stomatal aperture
